Values after ≈ are worked out from the molar mass of the structure shown. Where a name gives a salt, the structure may show the parent alone.
Target: T1, recombinant Raf-1 protein (activated type GST-Raf-1) (Homo sapiens, UniProt P04049)
T1 construct: fused on or other part: GST tag fused to Raf-1
Test: RAF-1 enzyme inhibition test (33P incorporation into MEK 1 protein)
Assay type: biochemical
Conditions: 10 μM ATP, GST-MEK1 substrate, 30° C., 45 minutes; read-out: Raf-1 Enzyme Inhibition, 50% Enzyme Inhibition Concentration (IC50 value)
Experimental: RAF-1 Enzyme Inhibition Test
With respect to the compounds relating to the present invention and the known compound (BAY 43-9006):
[drawing 660] the Raf-1 protein inhibition activity was measured. The enzymatic reaction was measured by incorporation of ^33P-phosphoric acid into MEK 1 protein by a recombinant Raf-1 protein. The activity was measured by preparing 50 μL of a reaction solution containing a dimethyl sulfoxide solution of the compound relating to the present invention or the compound BAY 43-9006 at a varied concentration [as the final concentration, the reaction solution containing […] of TRIS hydrochloric buffer (pH 7.5), 1 mM of dithiothreitol, 100 mM of sodium chloride, 10 mM of potassium fluoride, 1 mM of sodium vanadate, 10 mM of magnesium chloride, 10 μM of adenosine triphosphate (ATP, containing ^33P-ATP of 12580Bq), 2 μg of GST-MEK1 and 25 ng of an activated type GST-Raf-1]; keeping the reaction solution at 30° C. for 45 minutes; adding 100% trichloroacetic acid to the reaction solution in an amount twice the volume of the reaction solution to precipitate a proteinous component; recovering the precipitate on a glass filter; and measuring the radioactivity of the recovered product. The 50% inhibition concentration (IC50) was obtained from the inhibition ratio to a sample-free reference.
The compound BAYT 43-9006 was prepared on the basis of the description (Example 41) of WO 00/42012.

T1 sequence (P04049 349-648 limits assumed): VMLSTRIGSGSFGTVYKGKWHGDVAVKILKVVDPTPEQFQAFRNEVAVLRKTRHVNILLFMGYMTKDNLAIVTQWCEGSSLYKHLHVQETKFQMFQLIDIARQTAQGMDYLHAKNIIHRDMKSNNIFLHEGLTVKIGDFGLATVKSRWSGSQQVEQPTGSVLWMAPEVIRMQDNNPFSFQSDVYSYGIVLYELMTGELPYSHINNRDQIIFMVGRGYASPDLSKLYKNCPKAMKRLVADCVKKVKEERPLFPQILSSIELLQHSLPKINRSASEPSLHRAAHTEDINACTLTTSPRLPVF

IC50 [nM]	SMILES
29	C=Cc1nc2c(N)ncnc2n1-c1ccc(NC(=O)Nc2ccc(Cl)c(C(F)(F)F)c2)cc1 [Table 2, Compound 8, 1-[4-(6-Amino-8-vinylpurin-9-yl)phenyl]-3-(4-chloro-3-(tri-fluoromethyl)phenyl)urea]
270	CNc1ncnc2c1ncn2-c1ccc(NC(=O)Nc2cc(OC3CCN(C)CC3)cc(C(F)(F)F)c2)cc1 [Table 2, Compound 91, 1-[4-(6-(Methylamino)purin-9-yl)phenyl]-3-[3-(1-methyl-piperidin-4-yloxy)-5-(trifluoromethyl)phenyl]-urea]
130	CNc1ncnc2c1ncn2-c1ccc(NC(=O)Nc2cc(C(=O)NCC(O)CO)cc(C(F)(F)F)c2)cc1 (stereo not drawn) [Table 2, Compound 57]
75	CNc1ncnc2c1ncn2-c1ccc(NC(=O)Nc2cc(C(=O)NCCN(C)C)cc(C(F)(F)F)c2)cc1 [Table 2, Compound 40, N-(2-Dimethylaminoethyl)-3-{3-[4-(6-(methylamino)purin-9-yl)phenyl]ureido}-5-(trifluoromethyl)benzamide]
47	CC(=O)Oc1cccc2c1ccn2-c1ccc(NC(=O)Nc2ccc(Cl)c(C(F)(F)F)c2)cc1 [Table 1, Compound 18, Acetic acid 1-{4-[3-(4-chloro-3-(trifluoromethyl)phenyl)ureido]phenyl}-1H-indol-4-yl ester]
67	O=C(Nc1ccc(Cl)c(C(F)(F)F)c1)N(O)c1ccc(-n2cnc3ncncc32)cc1 [Table 1, Compound 46, 1-(4-Chloro-3-(trifluoromethyl)phenyl)-3-hydroxy-3-(4-purin-7-ylphenyl)urea]
130	CNc1ncnc2c1ncn2-c1ccc(NC(=O)Nc2cc(CCN3CCCC3)cc(C(F)(F)F)c2)cc1 [Table 3, Compound 31, 1-[4-(6-(Methylamino)purin-9-yl)phenyl]-3-[3-(2-pyrrolidin-1-yl-ethyl)-5-(trifluoromethyl)phenyl]urea]
67	CN1CCN(Cc2cc(NC(=O)Nc3ccc(-n4c(I)nc5c(N)ncnc54)cc3)cc(C(F)(F)F)c2)CC1 [Table 2, Compound 27]
51	Nc1ncnc2ncn(-c3ccc(NC(=O)Nc4ccc(Cl)c(C(F)(F)F)c4)cc3)c12 [Table 3, Compound 1, 1-[4-(6-(Aminopurin-7-yl)phenyl)-3-(4-chloro-3-(trifluoromethyl)phenyl)urea hydrochloride]
140	CNc1ncnc2c1ncn2-c1ccc(NC(=O)Nc2ccc(CCCN3CCCCC3)c(C(F)(F)F)c2)cc1 [Table 2, Compound 78, 1-[4-(6-(Methylamino)purin-9-yl)phenyl]-3-[4-[3-piperidin-1-yl-propyl]-3-(trifluoromethyl)phenyl]-urea]

Test system: not listed separately
Test: Solubility to fasted state simulated intestinal fluid
Assay type: physicochemical
Conditions: fassif, kinetic from dmso stock, fasted state simulated intestinal fluid (pH 6.5), 37° C.
Experimental: Method of Measuring Solubility to Fasted State Simulated Intestinal Fluid
To a 96-well plate, 2 μL of a dimethyl sulfoxide solution of the compound relating to the present invention or that of the compound BAY 43-9006 was poured at one time, respectively, and fasted state simulated intestinal fluid (pH 6.5) was added 200 μL by 200 μL, and the plate was shaken at 37° C. for 20 hours. The solution was filtered with a membrane filter and 101 μL of the filtrate was transferred to an UV plate, and 100 μL of a mixed solution of ethanol:water=2:1 was added thereto. On the other hand, as a standard solution, 2 μL of a dimethyl sulfoxide solution was added to a solution containing 4 μL of dimethyl sulfoxide, 400 μL of ethanol and 200 μL of water and the obtained solution was transferred 101 μL by 101 μL to the UV plate and to this UV plate, the simulated fasting bile-containing intestinal juice (pH 6.5) was added 100 μL by 100 μL. The solubility was calculated by the following equation. Solubility=(absorbance of sample solution-blank)/(absorbance of standard solution-blank)×[…]
165 μL is a concentration of the standard solution.
Composition of Fasted State Simulated Intestinal Fluid
Fasted state simulated intestinal fluid was prepared in accordance with E. Galia et al., Pharm. Res., 698, 1998.
To about 90 mL of water, 161 mg of taurocholic acid, 59 mg of L-α-phosphatidylcholine, 0.39 g of potassium dihydrogenphosphate and 0.77 g of potassium chloride were added and the pH of the mixture solution […] and the mixture solution was filtered with a membrane filter.

solubility at 20 h [µg/mL]	SMILES
175 (≈ 316 µM)	CCc1nc2c(N)ncnc2n1-c1ccc(NC(=O)Nc2cc(CN3CCN(C)CC3)cc(C(F)(F)F)c2)cc1 [Table 2, Compound 32]
193 (≈ 332 µM)	CNc1ncnc2c1ncn2-c1ccc(NC(=O)Nc2ccc(CCN3CCN(C(C)C)CC3)c(C(F)(F)F)c2)cc1 [Table 3, Compound 37, 1-{4-[2-(4-Isopropyl-piperazin-1-yl)ethyl]-3-(trifluoromethyl)phenyl}-3-[4-(6-(methylamino)purin-9-yl)phenyl]urea]
265 (≈ 525 µM)	CN(C)Cc1nc2c(N)ncnc2n1-c1ccc(NC(=O)Nc2ccc(Cl)c(C(F)(F)F)c2)cc1 [Table 2, Compound 12, 1-[4-(6-Amino-8-dimethylamino-methyl-purin-9-yl)phenyl]-3-(4-chloro-3-(trifluoromethyl)-phenyl)urea]
147 (≈ 258 µM)	CNc1ncnc2c1ncn2-c1ccc(NC(=O)Nc2ccc(CCN(C)CCCN(C)C)c(C(F)(F)F)c2)cc1 [Table 3, Compound 38, 1-(4-{2-[(3-(Dimethylamino)propyl)methylamino]ethyl}-3-(trifluoromethyl)phenyl)-3-[4-(6-(methylamino)purin-9-yl)phenyl]urea]
39 (≈ 64.1 µM)	COCCOCCOCC(=O)Nc1ncnc2c1ncn2-c1ccc(NC(=O)Nc2ccc(Cl)c(C(F)(F)F)c2)cc1 [Table 1, Compound 109, N-(9-{4-[3-(4-Chloro-3-(tri-fluoromethyl)phenyl)ureido]-phenyl}-9H-purin-6-yl)-2-[2-(2-methoxyethoxy)ethoxy]acetamide]
24	CNCCOc1cccc2c1ccn2-c1ccc(NC(=O)Nc2ccc(Cl)c(C(F)(F)F)c2)cc1.Cl [Table 1, Compound 21, 1-(4-Chloro-3-(trifluoromethyl)phenyl)-3-{4-[4-(2-methylamino-ethoxy)-indol-1-yl]phenyl}urea hydrochloride]
38 (≈ 67.7 µM)	O=C(Nc1ccc(-n2cnc3c(NCCN4CCOCC4)ncnc32)cc1)Nc1ccc(Cl)c(C(F)(F)F)c1 [Table 2, Compound 11, 1-(4-Chloro-3-(trifluoromethyl)-phenyl)-3-{4-[6-(2-morpholin-4-yl-ethylamino)purin-9-yl]-phenyl}urea]
149 (≈ 290 µM)	CN(C)CCN(C)c1ccc(NC(=O)Nc2ccc(-n3cnc4c(N)ncnc43)cc2)cc1C(F)(F)F [Table 2, Compound 35, 1-[4-(6-Aminopurin-9-yl)phenyl]-3-{4-[(2-dimetylaminoethyl)-methylamino]-3-(trifluoro-methyl)phenyl]urea]
120 (≈ 244 µM)	CNc1ncnc2c1nc(OC)n2-c1ccc(NC(=O)Nc2ccc(Cl)c(C(F)(F)F)c2)cc1 [Table 2, Compound 21, 1-(4-Chloro-3-(trifluoromethyl)-phenyl)-3-[4-(8-methoxy-6-(methylamino)purin-9-yl)phenyl]-urea]
193 (≈ 349 µM)	CN1CCN(Cc2cc(NC(=O)Nc3ccc(-n4cnc5c(C(N)=O)nccc54)cc3)cc(C(F)(F)F)c2)CC1 [Table 2, Compound 33, 1-(4-{3-[3-(4-Methylpiperazin-1-ylmethyl)-5-(trifluoromethyl)-phenyl]ureido}-phenyl)-1H-imidazo[4,5-c]pyridine-4-carboxamide]
34 (≈ 63.1 µM)	CNc1ncnc2c1ncn2-c1ccc(NC(=O)Nc2ccc(CCCN3CCCC3)c(C(F)(F)F)c2)cc1 [Table 2, Compound 77, 1-[4-(6-(Methylamino)purin-9-yl)phenyl]-3-[4-[3-pyrrolidin-1-yl-propyl]-3-(trifluoromethyl)phenyl]-urea]
107 (≈ 193 µM)	CNc1ncnc2c1ncn2-c1ccc(NC(=O)Nc2ccc(CCN(C)CCN(C)C)c(C(F)(F)F)c2)cc1 [Table 3, Compound 36, 1-(4-{2-[(2-(Dimethylamino)ethyl)-methylamino]-ethyl}-3-(trifluoromethyl)phenyl)-3-[4-(6-(methylamino)-purin-9-yl)phenyl]urea]
19 (≈ 34.6 µM)	COCCOC(=O)Nc1ncnc2c1ncn2-c1ccc(NC(=O)Nc2ccc(Cl)c(C(F)(F)F)c2)cc1 [Table 1, Compound 115, (9-{4-[3-(4-Chloro-3-(tri-fluoromethyl)phenyl)ureido]-phenyl}-9H-purin-6-yl)carbamic acid 2-methoxyethyl ester]
76 (≈ 139 µM)	CN(C)CCNC(=O)c1nccc2c1ncn2-c1ccc(NC(=O)Nc2ccc(Cl)c(C(F)(F)F)c2)cc1 [Table 1, Compound 92, 1-(4-[3-(4-Chloro-3-(trifluoro-methyl)phenyl)ureido]phenyl}-1H-imidazo[4,5-c]pyridine-4-carboxylic acid (2-dimethyl-aminoethyl)amide]
48 (≈ 86.7 µM)	CNc1ncnc2c1ncn2-c1ccc(NC(=O)Nc2cc(C(=O)N3CCN(C)CC3)cc(C(F)(F)F)c2)cc1 [Table 2, Compound 39]
104 (≈ 188 µM)	CNc1ncnc2c1ncn2-c1ccc(NC(=O)Nc2ccc(CNCCN3CCCC3)c(C(F)(F)F)c2)cc1 [Table 3, Compound 15]
34	Cl.Nc1ncc2ncn(-c3ccc(NC(=O)Nc4ccc(Cl)c(C(F)(F)F)c4)cc3)c2n1 [Table 1, Compound 34, 1-[4-(2-Aminopurin-9-yl)phenyl]-3-(4-chloro-3-(trifluoromethyl)phenyl)urea hydrochloride]

From US8609656B2, “Heteroarylphenylurea derivative” (Chugai Seiyaku Kabushiki Kaisha, priority 2004, dated 2013)
